These results are taken from patent publication US12209081B2 (Katholieke Universiteit Leuven, priority 2020, dated 2025).

This experiment addresses mouse TRPM3α2 (mTRPM3) ion channel (Mus musculus (Mouse), UniProt J9SQF3). Briefly: TRPM3 ion channel driven Ca2+ uptake, Fluo-4 AM assay, mTRPM3alpha2 overexpressing flip-in HEK293 cells stimulated with pregnenolone sulfate. The format is cell-based. The procedure, abridged: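 Read-out is Ca2+ influx via Fluo-4 AM fluorescence at 485/535 nm, taken right after seeding ~2000 cells/well onto compound with 50 μM PS. Inhibition computed from RFU between vehicle-stimulated and positive-control-inhibitor wells; cells were mTRPM3α2-overexpressing flip-in HEK293.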

[1] abbreviates: PS (50 μM) stimulated, cpd 001-199.
The mark [2] stands for this setting: PS (50 μM) stimulated, cpds. 667-751.
The mark [3] stands for this setting: PS (50 μM) stimulated, cpds. 608-666.
The mark [4] stands for this setting: PS (50 μM) stimulated, cpds. 500-599.
Where [5] appears, read: PS (50 μM) stimulated, cpds. 400-499.

Sequence of mouse TRPM3α2 (mTRPM3) ion channel (J9SQF3 other isoform, or with tags, fused parts or gaps): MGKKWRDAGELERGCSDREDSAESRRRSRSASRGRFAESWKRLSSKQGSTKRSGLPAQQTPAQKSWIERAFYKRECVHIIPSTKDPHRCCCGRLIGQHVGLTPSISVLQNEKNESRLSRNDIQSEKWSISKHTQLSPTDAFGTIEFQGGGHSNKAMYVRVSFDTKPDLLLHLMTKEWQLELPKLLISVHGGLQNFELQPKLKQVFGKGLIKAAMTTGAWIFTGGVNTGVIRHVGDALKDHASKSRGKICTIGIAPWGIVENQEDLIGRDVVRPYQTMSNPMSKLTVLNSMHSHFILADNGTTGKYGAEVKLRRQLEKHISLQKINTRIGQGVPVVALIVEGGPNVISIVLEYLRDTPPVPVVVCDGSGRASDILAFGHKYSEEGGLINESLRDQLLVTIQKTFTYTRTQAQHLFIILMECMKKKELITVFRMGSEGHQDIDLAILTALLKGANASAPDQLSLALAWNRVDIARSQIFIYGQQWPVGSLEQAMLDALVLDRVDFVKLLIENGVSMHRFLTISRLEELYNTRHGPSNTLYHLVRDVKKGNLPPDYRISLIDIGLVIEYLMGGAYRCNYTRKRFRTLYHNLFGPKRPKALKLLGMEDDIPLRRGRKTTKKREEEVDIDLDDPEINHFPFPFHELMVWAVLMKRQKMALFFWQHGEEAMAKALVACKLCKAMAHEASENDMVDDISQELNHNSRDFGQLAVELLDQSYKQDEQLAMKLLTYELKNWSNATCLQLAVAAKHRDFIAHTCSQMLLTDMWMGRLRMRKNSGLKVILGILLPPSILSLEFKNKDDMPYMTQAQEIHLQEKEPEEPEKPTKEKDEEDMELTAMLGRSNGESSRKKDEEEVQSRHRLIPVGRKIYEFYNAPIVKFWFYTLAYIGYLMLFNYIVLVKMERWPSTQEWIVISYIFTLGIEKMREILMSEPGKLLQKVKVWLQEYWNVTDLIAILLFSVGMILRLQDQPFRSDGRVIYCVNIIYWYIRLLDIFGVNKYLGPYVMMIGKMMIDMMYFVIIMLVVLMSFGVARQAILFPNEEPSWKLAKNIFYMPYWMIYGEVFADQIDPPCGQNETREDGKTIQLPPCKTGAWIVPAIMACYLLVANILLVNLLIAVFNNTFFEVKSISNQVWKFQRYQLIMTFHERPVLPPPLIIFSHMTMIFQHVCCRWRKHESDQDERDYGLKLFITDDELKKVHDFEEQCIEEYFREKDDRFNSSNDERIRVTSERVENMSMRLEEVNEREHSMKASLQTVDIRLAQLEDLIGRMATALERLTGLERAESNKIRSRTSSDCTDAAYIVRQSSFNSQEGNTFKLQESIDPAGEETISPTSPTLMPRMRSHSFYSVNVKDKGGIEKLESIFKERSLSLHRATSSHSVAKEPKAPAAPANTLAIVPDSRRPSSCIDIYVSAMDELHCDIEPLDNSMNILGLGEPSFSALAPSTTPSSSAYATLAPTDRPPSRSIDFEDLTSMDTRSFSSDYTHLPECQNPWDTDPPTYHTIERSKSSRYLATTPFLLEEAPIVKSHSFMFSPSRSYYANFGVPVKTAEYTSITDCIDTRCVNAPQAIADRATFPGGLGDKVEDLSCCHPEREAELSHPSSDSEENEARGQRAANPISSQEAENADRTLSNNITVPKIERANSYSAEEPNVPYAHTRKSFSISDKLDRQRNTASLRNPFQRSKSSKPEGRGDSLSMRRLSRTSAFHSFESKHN

As to `Cc1oc2ccc(OCc3cccnc3C(F)(F)F)cc2c1C(=O)NC1CN(CC(F)(F)F)CC1(F)F` (single isomer, unassigned) [157-En 1, N-(4,4-difluoro-1-(2,2,2-trifluoroethyl)pyrrolidin-3-yl)-2-methyl-5-((2-(trifluoromethyl)pyridin-3-yl)methoxy)benzofuran-3-carboxamide], under setting [1], the half-inhibitory concentration (IC50) is < 1 µM.

On to `Cc1oc2ccc(OCc3cccnc3N3CCC3)cc2c1C(=O)N[C@@H](CO)C(N)=O` [compound 706, (S)-N-(1-amino-3-hydroxy-1-oxopropan-2-yl)-5-((2-(azetidin-1-yl)pyridin-3-yl)methoxy)-2-methylbenzofuran-3-carboxamide], for which, under setting [2], the concentration for half-maximal inhibition (IC50) was < 1 µM.

As to `Cc1oc2ccc(OCc3cccnc3C(F)(F)F)cc2c1C(=O)NC1(CCO)COC1` [compound 129, N-(3-(2-hydroxyethyl)oxetan-3-yl)-2-methyl-5-((2-(trifluoromethyl)pyridin-3-yl)methoxy) -benzofuran-3-carboxamide], under setting [1], the concentration for half-maximal inhibition (IC50) is < 1 µM.

As for `Cc1oc2ccc(OCc3c(Cl)cnn3C)cc2c1C(=O)N[C@@H](CO)C(N)=O` [compound 670, (S)-N-(1-Amino-3-hydroxy-1-oxopropan-2-yl)-5-((4-chloro-1-methyl-1H-pyrazol-5-yl)methoxy) -2-methylbenzofuran-3-carboxamide], the IC50 under setting [2] was < 1 µM.

Regarding `Cc1ncsc1COc1ccc2oc(C)c(C(=O)N(CCO)C3CCC3)c2c1` [compound 660, N-cyclobutyl-N-(2-hydroxyethyl)-2-methyl-5-((4-methylthiazol-5-yl)methoxy)benzofuran-3-carboxamide], the IC50 under setting [3] was > 20 µM.

Regarding `Cc1ccc(COc2ccc3oc(C)c(C(=O)NC4CCOC4)c3c2)cn1` (centres unmarked) [compound 033, 2-methyl-5-((6-methylpyridin-3-yl)methoxy)-N-(tetrahydrofuran-3-yl)benzofuran-3-carboxamide], under setting [1], the half-maximal inhibitory concentration (IC50) is > 20 µM.

Regarding `Cc1ccc(COc2ccc3oc(C(F)F)c(C(=O)N[C@@H](CO)C(N)=O)c3c2)cn1` [compound 743, (S)-N-(1-Amino-3-hydroxy-1-oxopropan-2-yl)-2-(difluoromethyl)-5-((6-methylpyridin-3-yl)methoxy)benzofuran-3-carboxamide], under setting [2], the IC50 was < 1 µM.

With `Cc1oc2ccc(OCc3cccnc3C(F)(F)F)cc2c1C(=O)NC1CC2(CNC2)C1` [compound 173, 2-methyl-N-(2-azaspiro[3,3]heptan-6-yl)-5-((2-(trifluoromethyl)pyridin-3-yl)methoxy)benzofuran-3-carboxamide], the half-maximal inhibitory concentration (IC50) under setting [1] was < 1 µM.

Consider `Cc1nc(C)c(COc2ccc3oc(C)c(C(=O)N[C@@H](CO)C(N)=O)c3c2)s1` [compound 298, (S)-N-(1-amino-3-hydroxy-1-oxopropan-2-yl)-5-((2,4-dimethylthiazol-5-yl)methoxy)-2-methylbenzofuran-3-carboxamide], for which the IC50 (PS 50 μM, cpds 200-299) was < 1 µM.

`Cc1cnc(COc2ccc3oc(C)c(C(=O)NC4CCNCC4(F)F)c3c2)s1` (single isomer, unassigned) [cpd 555-En 2] registered an IC50 under setting [4] of 1 to 20 µM.

`Cc1ccc(COc2ccc3oc(C)c(C(=O)NC4CCNCC4(F)F)c3c2)nn1` (single isomer, unassigned) [cpd 556-En 1] showed an IC50 under setting [4] of 1 to 20 µM.

As for `Cc1ncsc1COc1ccc2oc(C)c(C(=O)NC(CO)C(=O)O)c2c1` (single isomer, unassigned) [cpd 270-En 1], for the setting “PS 50 μM, cpds 200-299”, the IC50 is > 20 µM.

Take `Cc1nc(COc2ccc3oc(C)c(C(=O)N[C@@H](CO)C(N)=O)c3c2)cs1` [compound 285, (S)-N-(1-amino-3-hydroxy-1-oxopropan-2-yl)-2-methyl-5-((2-methylthiazol-4-yl)methoxy)benzofuran-3-carboxamide]: the IC50 (PS 50 μM, cpds 200-299) is < 1 µM.

Turning to `Cc1oc2ccc(OCc3ccnn3C)cc2c1C(=O)NC(C)(C)C(N)=O` [compound 438, N-(1-amino-2-methyl-1-oxopropan-2-yl)-2-methyl-5-((1-methyl-1H-pyrazol-5-yl)methoxy)benzofuran-3-carboxamide], the IC50 under setting [5] was < 1 µM.

In the case of `Cc1oc2ccc(OCc3cccnc3O)cc2c1C(=O)NC1(C(N)=O)COC1` [compound 585, N-(3-carbamoyloxetan-3-yl)-5-((2-hydroxypyridin-3-yl)methoxy)-2-methylbenzofuran-3-carboxamide], the half-inhibitory concentration (IC50) under setting [4] is < 1 µM.

As for `COc1ncccc1COc1ccc2oc(C)c(C(=O)NC(C)(C)CO)c2c1` [compound 486, N-(1-hydroxy-2-methylpropan-2-yl)-5-((2-methoxypyridin-3-yl)methoxy)-2-methylbenzofuran-3-carboxamide], the half-maximal inhibitory concentration (IC50) under setting [5] is < 1 µM.

Regarding `Cc1oc2cc(F)c(OCc3cccnc3O)cc2c1C(=O)NC1(CO)CCOCC1` [compound 363, 6-fluoro-N-(4-(hydroxymethyl)tetrahydro-2H-pyran-4-yl)-2-methyl-5-((2-oxo-1,2-dihydropyridin-3-yl)methoxy)benzofuran-3-carboxamide], where the note is “PS 50 μM, cpds 300-399”, the IC50 was < 1 µM.

The compound `Cc1oc2ccc(OCc3ncccn3)cc2c1C(=O)NC1CCNCC1(F)F` (single isomer, unassigned) [cpd 559-En 1] came in with a half-maximal inhibitory concentration (IC50) under setting [4] of 1 to 20 µM.

For the compound `Cc1nc(C)c(COc2ccc3oc(C)c(C(=O)N[C@@H](CO)C(N)=O)c3c2)o1` [compound 678, (S)-N-(1-Amino-3-hydroxy-1-oxopropan-2-yl)-5-((2. 4-dimethyloxazol-5-yl)methoxy)-2-methylbenzofuran-3-carboxamide], the IC50 under setting [2] was < 1 µM.

On to `Cc1oc2ccc(OCc3nccs3)cc2c1C(=O)N[C@@H](CO)C(N)=O` [compound 695, (S)-N-(1-Amino-3-hydroxy-1-oxopropan-2-yl)-2-methyl-5-(thiazol-2-ylmethoxy)benzofuran-3-carboxamide], for which the IC50 under setting [2] was < 1 µM.

On to `Cc1ncc(COc2ccc3oc(C)c(C(=O)NC(C)CO)c3c2)s1` (single isomer, unassigned) [cpd 490-En 1], for which the half-maximal inhibitory concentration (IC50) under setting [5] was < 1 µM.

For the compound `Cc1oc2ccc(OCc3cnc(C(C)C)s3)cc2c1C(=O)N[C@@H](CO)C(N)=O` [compound 682, (S)-N-(1-Amino-3-hydroxy-1-oxopropan-2-yl)-5-((2-isopropylthiazol-5-yl)methoxy)-2-methylbenzofuran-3-carboxamide], under setting [2], the IC50 is < 1 µM.

`Cc1oc2ccc(OCc3ccccn3)cc2c1C(=O)NC1(CO)CC1` [compound 419, N-(1-(hydroxymethyl)cyclopropyl)-2-methyl-5-(pyridin-2-ylmethoxy)benzofuran-3-carboxamide]: the IC50 under setting [5] is < 1 µM.

Consider `Cc1oc2ccc(OCc3cccnc3OC3CC3)cc2c1C(=O)NC1(CO)CCOCC1` [compound 711, 5-((2-cyclopropoxypyridin-3-yl)methoxy)-N-(4-(hydroxymethyl)tetrahydro-2H-pyran-4-yl)-2-methylbenzofuran-3-carboxamide], for which the concentration for half-maximal inhibition (IC50) under setting [2] is < 1 µM.

Under setting [4], `Cc1nccc(COc2ccc3oc(C)c(C(=O)NC4CCNCC4(F)F)c3c2)n1` (single isomer, unassigned) [cpd 548-En 1] returned an IC50 of 1 to 20 µM.

`Cc1oc2ccc(OCC3(C)COC3)cc2c1C(=O)NC1CCNCC1(F)F` (single isomer, unassigned) [cpd 550-En 1] gave an IC50 under setting [4] of 1 to 20 µM.

For `Cc1oc2ccc(OCc3cccnc3O)cc2c1C(=O)NC1COCC1(F)F` (single isomer, unassigned) [cpd 648-En 1], under setting [3], the IC50 was < 1 µM.

As for `Cc1ncsc1COc1ccc2oc(C)c(C(=O)NC3(CO)COC3)c2c1` [compound 142, N-(3-(hydroxymethyl)oxetan-3-yl)-2-methyl-5-((4-methylthiazol-5-yl)methoxy)benzofuran-3-carboxamide], the 50% inhibitory concentration (IC50) under setting [1] is < 1 µM.

In the case of `Cc1cnn(C)c1COc1ccc2oc(C)c(C(=O)N[C@@H](CO)C(N)=O)c2c1` [compound 668, (S)-N-(1-Amino-3-hydroxy-1-oxopropan-2-yl)-5-((1,4-dimethyl-1H-pyrazol-5-yl)methoxy)-2-methylbenzofuran-3-carboxamide], under setting [2], the concentration for half-maximal inhibition (IC50) is < 1 µM.

Regarding `Cc1ncsc1COc1ccc2oc(C)c(C(=O)NC3(C(N)=O)COC3)c2c1` [compound 119, N-(3-carbamoyloxetan-3-yl)-2-methyl-5-((4-methylthiazol-5-yl)methoxy)benzofuran-3-carboxamide], the IC50 under setting [1] was < 1 µM.

For the compound `Cc1oc2ccc(OCc3cccnc3Cl)cc2c1C(=O)NC1CCNCC1(F)F` (centres unmarked) [compound 067, 5-((2-chloropyridin-3-yl)methoxy)-N-(3,3-difluoropiperidin-4-yl)-2-methylbenzofuran-3-carboxamide], the IC50 under setting [1] was < 1 µM.

`Cc1oc2c(F)cc(OCc3cccnc3C(F)(F)F)cc2c1C(=O)NC1CCNCC1(F)F` (single isomer, unassigned) [cpd 176-En 1, N-(3,3-difluoropiperidin-4-yl)-7-fluoro-2-methyl-5-((2-(trifluoro-methyl)pyridin-3-yl)methoxy)benzofuran-3-carboxamide] yielded a concentration for half-maximal inhibition (IC50) under setting [1] of 1 to 20 µM.

For `Cc1oc2ccc(OCc3cccnc3C(F)F)cc2c1C(=O)NC1(CO)COC1` [compound 341, 5-((2-(difluoromethyl)pyridin-3-yl)methoxy)-N-(3-(hydroxymethyl)oxetan-3-yl)-2-methylbenzofuran-3-carboxamide], the IC50 (PS 50 μM, cpds 300-399) is < 1 µM.

For the compound `Cc1oc2ccc(OCc3ncccc3C3CC3)cc2c1C(=O)N[C@@H](CO)C(N)=O` [compound 704, (S)-N-(1-Amino-3-hydroxy-1-oxopropan-2-yl)-5-((3-cyclopropylpyridin-2-yl)methoxy)-2-methylbenzofuran-3-carboxamide], under setting [2], the IC50 was < 1 µM.

Consider `Cc1oc2ccc(OCc3ccnn3C)cc2c1C(=O)NC(C)(CO)CO` [compound 423, N-(1,3-dihydroxy-2-methylpropan-2-yl)-2-methyl-5-((1-methyl-1H-pyrazol-5-yl)methoxy)benzofuran-3-carboxamide], for which the half-inhibitory concentration (IC50) under setting [5] was < 1 µM.
